Data on 2 molecules can be found in patent publication US9057727B2, “Screening methods using G-protein coupled receptors and related compositions” (The General Hospital Corporation, priority 2007, dated 2015).

In general, EC50 refers to the concentration that produces a half-maximal response. A higher EC50 goes with a need for much substance. As a reminder, the IC50 is the concentration at which inhibition is half-maximal.

The target in assay [1] is T1, hPTHR (Homo sapiens, UniProt Q03431).
T1 sequence (Q03431 27-593): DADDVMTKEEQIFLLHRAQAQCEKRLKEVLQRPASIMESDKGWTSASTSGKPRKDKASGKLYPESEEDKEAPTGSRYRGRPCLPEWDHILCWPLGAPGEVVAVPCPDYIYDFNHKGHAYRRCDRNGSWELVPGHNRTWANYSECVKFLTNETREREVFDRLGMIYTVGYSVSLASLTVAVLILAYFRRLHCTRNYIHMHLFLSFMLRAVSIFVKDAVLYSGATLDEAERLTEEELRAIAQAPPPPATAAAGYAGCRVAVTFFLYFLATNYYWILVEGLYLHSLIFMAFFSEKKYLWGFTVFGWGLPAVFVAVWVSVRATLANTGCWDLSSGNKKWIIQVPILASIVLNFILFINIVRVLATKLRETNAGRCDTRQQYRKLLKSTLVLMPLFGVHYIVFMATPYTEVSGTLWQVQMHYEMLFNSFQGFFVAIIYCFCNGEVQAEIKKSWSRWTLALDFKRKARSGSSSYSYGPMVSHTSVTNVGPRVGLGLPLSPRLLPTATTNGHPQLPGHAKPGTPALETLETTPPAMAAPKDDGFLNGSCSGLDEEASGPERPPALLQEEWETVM
Description: cAMP dose-response in HKRK-B64 cells. The assay is classed as cell-based. The arrangement: expressed in transfected cells. Particulars: for cAMP in HKRK-B64 cells Emax: basal 5.2 ± 0.9 pmole/well not subtracted.
Description: Cells were treated for 30 minutes at room temperature with varying concentrations of ligand in the presence of IBMX. […] Data are means (±s.e.m.) of four (FIG. 7A) or five (FIG. 7B) experiments, each performed in duplicate.
Following treatment of cells with a ligand, the intracellular cAMP levels were measured by radioimmuno assay, as described (Shimizu et al., J. Biol. Chem. 276:49003-49012 (2001)).

The target in assay [2] is T1, hPTHR. In words: Delayed cAMP response after ligand wash-out in HKRK-B64 cells. The arrangement: expressed in transfected cells. Particulars: HKRK-B64, 60 minutes after wash-out; read-out: cAMP response after wash-out, % of maximum response. The class given is cell-based.
Description: The cells were pre-treated for 10 minutes with either buffer alone (basal) or buffer containing ligand (100 nM); at t=0, the cells were washed, incubated in buffer for the times indicated (wash-out phase), treated with 3-isobutyl-1-methylxanthine (IBMX) for five minutes, and then assessed for intracellular cAMP. […] The cAMP level in cells treated with IBMX in the absence of ligand was 2.0±0.3 pmole/well. Data are means (±s.e.m.) of three experiments, each performed in duplicate. […] Analogs were similarly assessed in HKRK-B64 cells (90,000 hPTHRs/cell) at a single time-point, 60 minutes after ligand wash-out (FIG. 5B). For each peptide, the data are expressed as a percentile of the maximum cAMP responses (indicated in side panel) produced in cells treated concomitantly with that ligand and IBMX for 10 minutes and omitting the wash-out phase. […] Data are means (±s.e.m) of four experiments, each performed in triplicate.
The capacity of the ligands to produce sustained (or delayed) cAMP signaling responses was further examined in HKRK-B64 cells, which express the hPTHR at a more physiological level than do HKRK-B7 cells (90,000 per cell vs. 950,000/cell).
The capacities of ligands to produce a delayed cAMP response in cells after a brief exposure to the ligand was assessed as follows. The cells in 24-well plates were rinsed in binding buffer (50 mM Tris-HCl, pH 7.7, 100 mM NaCl, 5 mM KCl, 2 mM CaCl2, 5% heat-inactivated horse serum, 0.5% heat-inactivated fetal bovine serum) and then incubated in binding buffer with or without a peptide ligand (1×10^−7 or 3×10^−7 M) for 10 minutes at room temperature; the buffer was then removed, the cells were washed three times with binding buffer, incubated further in binding buffer for varying times (1 to 120 minutes); the buffer was then replaced by binding buffer containing IBMX (2 mM), and after an additional five minute incubation, the intracellular cAMP was quantified.
In assay [3] the target is T1, hPTHR. Description: Inositol phosphate production in COS-7/hPTHR cells. The assay is classed as cell-based. Further details: expressed in transfected cells; host or cells: COS-7, transient (Fugene-6). Particulars: basal 330 ± 8 cpm/well not subtracted.
Description: The capacity of the ligands to stimulate the production of inositol phosphates (IPs) was assessed in COS-7 cells transiently transfected with the hPTHR (FIG. 7B). Cells were treated for 30 minutes at room temperature with varying concentrations of ligand. […] Data are means (±s.e.m.) of four (FIG. 7A) or five (FIG. 7B) experiments, each performed in duplicate.
The stimulation of intracellular inositol phosphates (IPs) was measured in transiently transfected COS-7 cells that were pre-labeled (16 hours) with ^3H-myo-D-inositol (2 μCi/ml). Cells were treated with ligand in DMEM containing fetal bovine serum (10%) and LiCl (30 mM) for 30 minutes; cells were lysed with ice cold trichloro acetic acid (5%) and IPs were extracted from the acid-lysates by ion-exchange filtration, as described (Shimizu et al., J. Biol. Chem. 276:49003-49012 (2001)).
The target in assay [4] is T2, human PTHR, G protein-uncoupled conformation (R^0) (Homo sapiens, UniProt Q03431).
T2 construct: expressed in transfected cells; host or cells: COS-7, transient (Fugene-6)
T2 sequence (Q03431 27-593): T1 sequence (Q03431 27-593)
In words: Competition binding to R0 conformation of hPTHR (COS-7 membranes, GTPγS, 125I-PTH(1-34) tracer). Particulars: Table 5; for R0:RG: fold weaker affinity for R0 than RG. In outline: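 Membranes from hPTHR-transfected COS-7 cells (20-100 μg/mL protein) incubated 90 min with radioligand (~150,000 cpm/ml) and unlabeled ligands, then filtered. Specific binding expressed as % of binding without competitor.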

For assay [5], the target named is T3, human PTHR, G protein-coupled conformation (RG) (Homo sapiens, UniProt Q03431).
T3 construct: expressed in transfected cells; host or cells: COS-7, transient (Fugene-6); membranes
T3 sequence (Q03431 27-593): T1 sequence (Q03431 27-593)
In words: Competition binding to RG conformation of hPTHR (COS-7 membranes, GαsND, 125I-[Aib1,3,M]PTH(1-15) tracer). Particulars: Table 5; read-out: IC50 RG, ^125I-PTH(1-15) + GsND.

Molecules are shown by their SMILES. Square brackets hold non-standard residues; d marks the D form. Peptide text beside a SMILES is read from it. Nle = CCCC[C@H](N)C(=O)O

`CCCC[C@H](NC(=O)[C@H](CC(C)C)NC(=O)[C@H](CCC(N)=O)NC(=O)[C@H](Cc1c[nH]cn1)NC(=O)[C@H](CCC(=O)O)NC(=O)[C@H](CO)NC(=O)[C@@H](NC(=O)[C@H](C)N)C(C)C)C(=O)N[C@@H](Cc1c[nH]cn1)C(=O)N[C@@H](CC(N)=O)C(=O)N[C@@H](CC(C)C)C(=O)NCC(=O)N[C@@H](CCCCN)C(=O)N[C@@H](Cc1c[nH]cn1)C(=O)N[C@@H](CC(C)C)C(=O)N[C@@H](C)C(=O)N[C@@H](CO)C(=O)N[C@H](C(=O)N[C@@H](CCC(=O)O)C(=O)N[C@@H](CCCNC(=N)N)C(=O)N[C@@H](CCCC)C(=O)N[C@@H](CCC(N)=O)C(=O)N[C@@H](Cc1c[nH]c2ccccc12)C(=O)N[C@@H](CC(C)C)C(=O)N[C@@H](CCCNC(=N)N)C(=O)N[C@@H](CCCCN)C(=O)N[C@@H](CCCCN)C(=O)N[C@@H](CC(C)C)C(=O)N[C@@H](CCC(N)=O)C(=O)N[C@@H](CC(=O)O)C(=O)N[C@H](C(=O)N[C@@H](Cc1c[nH]cn1)C(=O)N[C@@H](CC(N)=O)C(=O)N[C@@H](Cc1ccc(O)cc1)C(N)=O)C(C)C)C(C)C` [[His^5,Nle^8,21,Tyr^34]rPTH(1-34)NH2] (H-AVSEHQL[Nle]HNLGKHLASVER[Nle]QWLRKKLQDVHNY-NH2; N-terminus assumed): the EC50 in assay [1] (30 min, room temperature, IBMX) came out at 2.7 nM. The “cAMP in HKRK-B64 cells Emax” value in assay [1] worked out at 59 ± 12 picomole/well. In addition, the Emax in assay [2] turned out to be 34%. The “IP in COS-7/hPTHR cells Emax” value in assay [3] is on record as 2,231 ± 229 cpm/well. The “R0:RG” value in assay [4] amounted to 753; in assay [4] (listed as His^5-PTH(1-34)), 750.

With `CCCC[C@H](NC(=O)[C@H](CCCNC(=N)N)NC(=O)[C@H](CCC(=O)O)NC(=O)[C@@H](NC(=O)[C@H](CO)NC(=O)[C@H](C)NC(=O)[C@H](CC(C)C)NC(=O)[C@H](Cc1c[nH]cn1)NC(=O)[C@H](CCCCN)NC(=O)CNC(=O)[C@H](CC(C)C)NC(=O)[C@H](CC(N)=O)NC(=O)[C@H](Cc1c[nH]cn1)NC(=O)[C@H](CCCC)NC(=O)[C@H](CC(C)C)NC(=O)[C@H](CCC(N)=O)NC(=O)[C@@H](NC(=O)[C@H](CCC(=O)O)NC(=O)[C@H](CO)NC(=O)[C@@H](NC(=O)[C@H](C)N)C(C)C)[C@@H](C)CC)C(C)C)C(=O)N[C@@H](CCC(N)=O)C(=O)N[C@@H](Cc1c[nH]c2ccccc12)C(=O)N[C@@H](CC(C)C)C(=O)N[C@@H](CCCNC(=N)N)C(=O)N[C@@H](CCCCN)C(=O)N[C@@H](CCCCN)C(=O)N[C@@H](CC(C)C)C(=O)N[C@@H](CCC(N)=O)C(=O)N[C@@H](CC(=O)O)C(=O)N[C@H](C(=O)N[C@@H](Cc1c[nH]cn1)C(=O)N[C@@H](CC(N)=O)C(=O)N[C@@H](Cc1ccc(O)cc1)C(N)=O)C(C)C` [[Nle^8,21,Tyr^34]rPTH(1-34)NH2, [Nle^8,21,Tyr^34]rat(r)PTH(1-34)NH2, reference compound], the “cAMP in HKRK-B64 cells Emax” value in assay [1] is recorded as 55 ± 12 picomole/well. The “IP in COS-7/hPTHR cells Emax” value in assay [3] is 2,407 ± 138 cpm/well. For the same molecule, the IC50 in assay [5] was 0.86 ± 0.24 nM; in assay [4] (IC50 RR^0, ^125I-PTH(1-34) + GTPγS), 4.2 ± 0.5 nM. Besides, the “R0:RG” value in assay [4] was 5.
